This note sets out measurements from US6762045B2, “Membrane derived caspase-3, compositions comprising the same and methods of use therefor” (Idun Pharmaceuticals, Inc., priority 2000, dated 2004).

Experiment [1] has as its target T1, recombinant human caspase-3 (r-caspase-3 (His)6) (Homo sapiens, UniProt P42574).
T1 construct: The large subunit of purified bacterially expressed caspase-3 migrates as a 17-kDa band; purified fully-processed recombinant human caspase-3; His6 (C); made in house; host or cells: E. coli BL21 (DE3), pET21b; Ni2+ chelating column
T1 sequence (P42574 29-175 limits assumed): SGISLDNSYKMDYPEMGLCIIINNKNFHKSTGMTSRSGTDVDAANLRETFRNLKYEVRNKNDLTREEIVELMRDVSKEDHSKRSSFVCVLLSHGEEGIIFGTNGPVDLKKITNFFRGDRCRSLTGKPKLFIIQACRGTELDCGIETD
T1 sequence (P42574 176-277 limits assumed): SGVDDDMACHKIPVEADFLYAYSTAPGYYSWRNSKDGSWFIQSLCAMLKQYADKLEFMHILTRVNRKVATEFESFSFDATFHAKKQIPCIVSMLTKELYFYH
Put plainly: DEVD-amc cleavage by recombinant caspase-3. The format is biochemical. The method, then: (§1) For inhibition studies, 50 μl of the enzyme was pretreated with 150 μl inhibitor for 30 min at room temperature prior to the addition of 50 μl of 50 μM substrate solution.

Experiment [2] addresses T2, 697 Bcl-2 HM (caspase-1 treated) derived caspase (Homo sapiens, UniProt P42574).
T2 construct: the heavy membrane caspase is comprised of a large 19-kDa subunit and a smaller 12-kDa subunit; endogenous in cells; host or cells: 697-neo / 697-Bcl-2 human lymphoblastoid cells; supernatant assayed
T2 sequence (P42574 14-175): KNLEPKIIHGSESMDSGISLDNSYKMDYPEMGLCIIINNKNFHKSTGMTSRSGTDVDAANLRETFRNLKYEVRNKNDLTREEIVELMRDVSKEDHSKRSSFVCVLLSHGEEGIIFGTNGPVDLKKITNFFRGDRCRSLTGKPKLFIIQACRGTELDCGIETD
T2 sequence (P42574 176-277): T1 sequence (P42574 176-277 limits assumed)
Kind of experiment: Inhibition of DEVD-amc cleavage, caspase-1 activated 697-Bcl-2 heavy membranes. The format is biochemical. The method, then: (§2) SEQ ID NO:6) substrate in ICE buffer (20 mM HEPES, 1 mM EDTA, 0.1% CHAPS, 10% sucrose, 5 mM DTT, pH 7.5) in duplicate Cytoplate wells. […] KM values were calculated from these measurements using the equation: where ΔFL/Δt is the observed initial rate of fluorescence change at substrate concentration [S] and (ΔFL/Δt)MAX is the initial rate of fluorescence change at saturating substrate concentrations. For inhibition studies, 50 μl of the enzyme was pretreated with 150 μl inhibitor for 30 min at room temperature prior to the addition of 50 μl of 50 μM substrate solution.

Experiment [3] deals with cortical cell HM (caspase-1 treated) derived caspase. Kind of experiment: Inhibition of DEVD-amc cleavage, caspase-1 activated E15 brain cortical cell heavy membranes. The format is biochemical, mouse. The method, then:
(§3) Caspase activity was measured by mixing 50 μl of an enzyme-containing fraction and 200 μl of 25 μM DEVD-amc (Asp-Glu-Val-Asp-aminomethylcoumarin; SEQ ID NO:6) substrate in ICE buffer (20 mM HEPES, 1 mM EDTA, 0.1% CHAPS, 10% sucrose, 5 mM DTT, pH 7.5) in duplicate Cytoplate wells. Product formation was monitored by the increase in fluorescence (ex=360 nm, em=460 nm) over 1-2 hours at 30° C. using the CytoFluor 4000 plate reader (Perseptive Biosystems, Framingham, Mass.). For kinetic studies, the substrate concentration was varied in the range 1-200 μM. KM values were calculated from these measurements using the equation: […]
(§4) where ΔFL/Δt is the observed initial rate of fluorescence change at substrate concentration [S] and (ΔFL/Δt)MAX is the initial rate of fluorescence change at saturating substrate concentrations. […] Inhibitor IC50 values were determined using the equation: […]
(§5) ΔFL/Δt is the observed initial rate of fluorescence change at inhibitor concentration [I] and (ΔFL/Δt)o is the initial rate fluorescence change for the uninhibited enzyme. […]
(§6) To determine if the presence of membrane derived caspase activity is a general property of mammalian cells, the DEVD-amc cleavage activity in heavy membranes from two other cell sources was measured: mouse E 15 primary brain cortical cells and the mouse dopaminergic MN9D cell line (Choi et al., […] 89:8943-8947, 1992). […]

Experiment [4] concerns the target T3, 697-neo HM (caspase-1 treated) derived caspase (Homo sapiens, UniProt P42574).
T3 construct: the heavy membrane caspase is comprised of a large 19-kDa subunit and a smaller 12-kDa subunit; endogenous in cells; host or cells: 697-neo / 697-Bcl-2 human lymphoblastoid cells; supernatant assayed
T3 sequence (P42574 14-175): T2 sequence (P42574 14-175)
T3 sequence (P42574 176-277): T1 sequence (P42574 176-277 limits assumed)
Put plainly: Inhibition of DEVD-amc cleavage, caspase-1 activated 697-neo heavy membranes. The format is biochemical. The method, then: as §2

Experiment [5] addresses T4, caspase-1 activation of membrane derived procaspase-3 (Mus musculus, UniProt P29452).
T4 construct: contains the p30 caspase-1 cDNA inserted into the Nde I/BamH I sites of the pET3a expression vector; FLAG; made in house; host or cells: caspase-1: E. coli BL21 (DE3) pLysS lysate; procaspase-3: endogenous in 697 cell heavy membranes
T4 sequence (P29452 119-296 limits assumed): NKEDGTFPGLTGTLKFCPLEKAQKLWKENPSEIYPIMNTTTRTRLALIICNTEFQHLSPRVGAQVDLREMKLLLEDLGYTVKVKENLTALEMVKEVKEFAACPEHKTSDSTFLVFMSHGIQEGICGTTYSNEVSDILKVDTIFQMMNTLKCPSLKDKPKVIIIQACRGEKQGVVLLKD
T4 sequence (P29452 315-402 limits assumed): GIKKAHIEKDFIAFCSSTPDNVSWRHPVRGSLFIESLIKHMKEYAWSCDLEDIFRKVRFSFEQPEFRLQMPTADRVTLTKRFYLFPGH
Put plainly: Caspase-1 mediated activation of membrane procaspase-3 in 697 heavy membranes. The format is biochemical, human.
Procedure: Heavy membrane samples were diluted to 1 mg/ml in hypotonic buffer or in 0.25 M sucrose, 10 mM MOPS, 2 mM EDTA, pH 7.4 (Mancini, et al., 1998) containing 5 mM DTT with or without 1% NP-40. […] After the activation period, the heavy membrane pellet was removed from the sample by centrifugation for 10 min at 14,000×g at 4° C. […] In some experiments, caspase-1 activity was rapidly quenched at specific time points by the addition of one-tenth volume 3 μM YVADaldehyde (Bachem Bioscience, King of Prussia, Pa.) prior to centrifugation. To examine the time course of spontaneous activation of caspase activity from membranes, 50 μi of heavy membrane slurry containing 50-100 μg total protein was mixed with 200 μl hypotonic buffer containing 25 μM DEVD-amc substrate and 6 mM DTT in 96 well Cytofluor plates and fluorescence was measured over time. At selected time points, aliquots were removed from some wells, centrifuged for 10 min at 14,000×g to remove the heavy membranes and the supernatant was added back into the 96 well plate to measure the soluble DEVD-amc cleavage activity. […]
In this experiment, heavy membrane fractions (containing 50 μg total protein) from 697-Bcl-2 and 697-neo cells were re-suspended and treated with murine caspase-1 for one hour at room temperature. Following centrifugation, the DEVD-amc cleavage activity of the resulting supernatant was measured.

The target of experiment [6] is MN9D HM (caspase-1 treated) derived caspase. Kind of experiment: Inhibition of DEVD-amc cleavage, caspase-1 activated MN9D heavy membranes. The format is biochemical, mouse. The method, then:
as §3, §4, §5, §6

In a further experiment the target is T5, caspase-1 (Mus musculus, UniProt P29452).
T5 construct: contains the p30 caspase-1 cDNA inserted into the Nde I/BamH I sites of the pET3a expression vector; FLAG; made in house; host or cells: E. coli BL21 (DE3) pLysS, pET3a; used as clarified bacterial lysate
T5 sequence (P29452 119-296 limits assumed): T4 sequence (P29452 119-296 limits assumed)
T5 sequence (P29452 315-402 limits assumed): T4 sequence (P29452 315-402 limits assumed)
Put plainly: Caspase-1 inhibition. The format is biochemical. To be noted: 300 nM.

Experiment [7] deals with T6, purified membrane derived caspase-3 (Homo sapiens, UniProt P42574).
T6 construct: the heavy membrane caspase is comprised of a large 19-kDa subunit and a smaller 12-kDa subunit; endogenous in cells; host or cells: 697 human lymphoblastoid cells
T6 sequence (P42574 14-175): T2 sequence (P42574 14-175)
T6 sequence (P42574 176-277): T1 sequence (P42574 176-277 limits assumed)
Put plainly: DEVD-AMC cleavage by affinity purified membrane derived caspase-3 from 697 cells. The format is biochemical. The procedure:
as §1

Read-outs that look alike come from different tables or passages of the source. Bounds are passed on as bounds.

As for `CC(=O)N[C@@H](Cc1ccc(O)cc1)C(=O)N[C@H](C(=O)N[C@@H](C)C(=O)N[C@H](C=O)CC(=O)O)C(C)C` [YVAD-ald], the IC50 in experiment [1] (inhibition of DEVD-amc cleavage, read-out: IC50 r-caspase-3 (His)6) was above 10 µM; in experiment [1] (read-out: IC50 caspase-3), above 10 µM; in experiment [2], above 10 µM; in experiment [3], above 10 µM; in experiment [4] (inhibition of DEVD-amc cleavage), above 10 µM; in experiment [6], above 10 µM. Further, the “Inhibition of DEVD-AMC hydrolysis activity of caspase-1 activated membrane caspase” value in experiment [4] (300 nM) is recorded as “not inhibited”. In experiment [5] (200 nM), the “Block of caspase-1 activation of membrane caspase” value is listed as “completely blocked”. Moreover, the “Block of activation of DEVD-AMC hydrolytic activity and generation of 20-kDa large subunit” value in experiment [5] (caspase-1 pretreated with 300 nM) is reported as “blocks”. Further, the “Inhibition of caspase-1” value at caspase-1 is given as “completely inhibits”.

For `CC(C)[C@H](NC(=O)[C@H](CCC(=O)O)NC(=O)OCc1ccccc1)C(=O)N[C@H](C=O)CC(=O)O` [ZEVDald], in experiment [7] (inhibition of DEVD-AMC cleavage, Table III, read-out: IC50 Membrane (purified membrane derived caspase-3)), the IC50 worked out at 32 nM.

B1: Baculovirus p35: early p35 protein from Autographa californica nuclear polyhedrosis virus, recombinant (protein)
chain: MCVIFPVEIDVSQTIIRDCQVDKQTRELVYINKIMNTQLTKPVLMMFNISGPIRSVTRKNNNLRDRIKSKVDEQFDQLERDYSDQMDGFHDSIKYFKDEHYSVSCQNGSVLKSKFAKILKSHDYTDKKSIEAYEKYCLPKLVDERNDYYVAVCVLKPGFENGSNQVLSFEYNPIGNKVIVPFAHEINDTGLYEYDVVAYVDSVQFDGEQFEEFVQSLILPSSFKNSEKVLYYNEASKNKSMIYKALEFTTESSWGKSEKYNWKIFCNGFIYDKKSKVLYVKLHNVTSALNKNVILNTIK
With B1, the IC50 amounted to 4.1e-05 µM in experiment [1] (inhibition of DEVD-AMC cleavage, Table III, read-out: IC50 Recombinant (caspase-3)) and 0.074 nM in experiment [7] (read-out: IC50 heavy membrane caspase from 697 cells).

What is called IC50 is the concentration needed to halve the response being measured.
